Assay results from US9284531B2, “Differentiation of human pluripotent stem cells into cells expressing mature hepatocyte markers by 2D and bioreactor culture” (Takara Bio Europe AB, priority 2009, dated 2016).

Key:
[1] = tested on: CYP1A2; assay: CYP P450 activity test in bioreactor cultures (phenacetin to acetaminophen); assay type: in vitro ADME, human; conditions: bioreactors HepDiff-1 and HepDiff-2, hESC-derived cells, 26 μM at start, 24 h recirculation, LC/MS
Description: (§1) Bioreactor cultures that were treated with the hepatic differentiation protocol were tested or their ability to metabolize phenacetin, diclophenac and midazolam via the phase I cytochrome (CYP) P450 enzymes CYP1A2, CYP2C9 and CYP3A4, respectively. At days 40 and 47 after inoculation of the cells a CYP P450 activity test was performed according to the scheme:
(§2) For this purpose, fresh medium inflow and medium outflow was closed and a cocktail of the test substances was injected into the recirculating medium to get the following concentrations at the beginning of the test: 3 μM Midazolam, 9 μM Diclophenac and 26 μM Phenacetin. During the next 24 hours, the bioreactor was operated in recirculation mode (no fresh medium was added and only the medium recirculation pump recirculates the medium). Samples from the recirculation were taken before starting the experiment and after 1, 4, 8 and 24 hours and analyzed for the metabolites of the test substances by liquid chromatography/mass spectrometry (LC/MS). Analyses were performed at Astrazeneca AB, Gothenburg, Sweden. After the last sample was taken the bioreactor was flushed with fresh medium in single pass mode with two times the volume of the bioreactor and tubing system and then switched to the normal perfusion mode recirculation with fresh medium inflow). […]

[2] = tested on: CYP3A4; assay: CYP P450 activity test in bioreactor cultures (midazolam to 1'OH midazolam); conditions: both bioreactors HepDiff-1 and HepDiff-2, days 40 and 47, 3 μM at start
Description: as §1, §2

[3] = tested on: HFF; assay: HFF feeder cell experiments in 2D cultures and bioreactors (activin A production, proliferation); assay type: cell-based, human
Description: The metabolic activity and differentiation of the cells inside the bioreactors were characterized on a daily basis by measuring soluble factors in the medium outflow and in the recirculating medium. The following parameters were measured using automated clinical chemistry analyzers (Roche Diagnostics, Heidelberg, Germany): α-fetoprotein (AFP), alkaline phosphatase (AP), alanine transaminase (ALT), aspartate transaminase (AST), beta-human chorionic gonadotropin (β-hCG), c-peptide, carcinoembryonic antigen (CEA), cytokeratin fragment 19 (Cyfra 21-1), erythropoetin, estradiol, follicle stimulating hormone (FSH), factors II-V-X-XIII, fibrinogen, gamma-glutamyltransferase (GGT), glucose, lactate, lactate dehydrogenase (LDH), luteinizing hormone, neuronspecific enolase (NSE), osmolality, osteocalcin, pseudocholinesterase (PCHE), prealbumin progesterone, prolactin, S-100, thyroid-stimulating hormone (TSH), tissue plasminogen activator (TPA), transferrin (for a detailed description of the measurement methods see Table 8 in appendix). Additionally glutamine, glutamate, glucose, lactate, ammonium, pH, sodium (Na+), potassium (K+) were measured with a BioProfile 100 Plus device (Nova Biomedical, Waltham, Mass., USA). Activin A, insulin and albumin were measured with enzyme-linked immunosorbent assays (ELISAs) following the manufacturer's recommendations (activin A using products DY338, DY999, DY994, DY995 from R&D Systems, Wiesbaden-Nordenstadt, Germany; insulin using an ELISA from Invitrogen; albumin using an ELISA from Albuwell, Exocell Inc., Philadelphia, Pa., USA). Urea was measured using a colorimetric determination kit (QuantiChrom, BioAssay Systems, Hayward, Calif., USA). Galactose and sorbitol concentrations were measured by enzymatic assays (Roche Diagnostics).
The pluripotency supporting activity of the HFF could be correlated with their production of activin A. To further examine the behaviour of the HFF feeder cells several experiments only with HFF were carried out in 2D cultures and in two bioreactors.
In one experiment, the bioreactor is inoculated with active HFF that will be cultured in medium supplemented with serum and bFGF to stimulate HFF proliferation. Increase of the cell number is monitored by the levels of glucose consumption and lactate production. When a sufficient cell number is reached culture medium is changed to hBS medium for conditioning. Optimal medium exchange rates have to be determined for example measuring activin A and glucose concentrations in the conditioned medium as quality control parameters. A low glucose level might indicate the demand for increasing the medium feed rate and a low activin A level might be a sign for insufficient conditioning unsuitable to promote hESC pluripotency.

## CCOc1ccc(NC(C)=O)cc1 [phenacetin, Phenacetin]
[1]
  metabolism of phenacetin by CYP1A1/1A2: Significant metabolism

## Cc1ncc2n1-c1ccc(Cl)cc1C(c1ccccc1F)=NC2 [midazolam, Midazolam]
[2]
  metabolism of midazolam: no metabolism

## basic fibroblast growth factor [bFGF]
[3]; bioreactor experiment HFF-2, medium supplemented with serum replacement
  mitogenic effect on HFF: not observed
[3]; medium containing serum replacer
  activin A production by HFF: stimulated
[3]; medium supplemented with serum
  activin A production by HFF: did not stimulate
[3]; medium supplemented with serum, 2D and bioreactor experiment HFF-1
  mitogenic effect on active HFF: strong mitogenic effect
